Data: ChEMBL document CHEMBL5325474, “Di-indenopyridines as topoisomerase II-selective anticancer agents: Design, synthesis, and structure-activity relationships” (Bioorg Med Chem, 2023)
Activity calls are given as the source filed them. No cut-off for these calls is given here.

What was measured:
HCT-15 = experiment: Antiproliferative activity against human HCT-15 cells incubated for 72 hrs by microplate reader analysis; type: functional, cell-based; conditions: HCT-15, 72 h
HeLa = experiment: Antiproliferative activity against human HeLa cells incubated for 72 hrs by microplate reader analysis; type: functional, cell-based
[1] = biological target: DNA topoisomerase 2-alpha (Homo sapiens) (UniProt P11388); experiment: Inhibition of human DNA topoisomerase 2 alpha at 20 uM using supercoiled pBR322 DNA as substrate incubated for 30 mins by EtBr staining based agarose gel electrophoresis method relative to control
DNA topoisomerase 2-alpha (Homo sapiens), sequence (P11388 whole entry): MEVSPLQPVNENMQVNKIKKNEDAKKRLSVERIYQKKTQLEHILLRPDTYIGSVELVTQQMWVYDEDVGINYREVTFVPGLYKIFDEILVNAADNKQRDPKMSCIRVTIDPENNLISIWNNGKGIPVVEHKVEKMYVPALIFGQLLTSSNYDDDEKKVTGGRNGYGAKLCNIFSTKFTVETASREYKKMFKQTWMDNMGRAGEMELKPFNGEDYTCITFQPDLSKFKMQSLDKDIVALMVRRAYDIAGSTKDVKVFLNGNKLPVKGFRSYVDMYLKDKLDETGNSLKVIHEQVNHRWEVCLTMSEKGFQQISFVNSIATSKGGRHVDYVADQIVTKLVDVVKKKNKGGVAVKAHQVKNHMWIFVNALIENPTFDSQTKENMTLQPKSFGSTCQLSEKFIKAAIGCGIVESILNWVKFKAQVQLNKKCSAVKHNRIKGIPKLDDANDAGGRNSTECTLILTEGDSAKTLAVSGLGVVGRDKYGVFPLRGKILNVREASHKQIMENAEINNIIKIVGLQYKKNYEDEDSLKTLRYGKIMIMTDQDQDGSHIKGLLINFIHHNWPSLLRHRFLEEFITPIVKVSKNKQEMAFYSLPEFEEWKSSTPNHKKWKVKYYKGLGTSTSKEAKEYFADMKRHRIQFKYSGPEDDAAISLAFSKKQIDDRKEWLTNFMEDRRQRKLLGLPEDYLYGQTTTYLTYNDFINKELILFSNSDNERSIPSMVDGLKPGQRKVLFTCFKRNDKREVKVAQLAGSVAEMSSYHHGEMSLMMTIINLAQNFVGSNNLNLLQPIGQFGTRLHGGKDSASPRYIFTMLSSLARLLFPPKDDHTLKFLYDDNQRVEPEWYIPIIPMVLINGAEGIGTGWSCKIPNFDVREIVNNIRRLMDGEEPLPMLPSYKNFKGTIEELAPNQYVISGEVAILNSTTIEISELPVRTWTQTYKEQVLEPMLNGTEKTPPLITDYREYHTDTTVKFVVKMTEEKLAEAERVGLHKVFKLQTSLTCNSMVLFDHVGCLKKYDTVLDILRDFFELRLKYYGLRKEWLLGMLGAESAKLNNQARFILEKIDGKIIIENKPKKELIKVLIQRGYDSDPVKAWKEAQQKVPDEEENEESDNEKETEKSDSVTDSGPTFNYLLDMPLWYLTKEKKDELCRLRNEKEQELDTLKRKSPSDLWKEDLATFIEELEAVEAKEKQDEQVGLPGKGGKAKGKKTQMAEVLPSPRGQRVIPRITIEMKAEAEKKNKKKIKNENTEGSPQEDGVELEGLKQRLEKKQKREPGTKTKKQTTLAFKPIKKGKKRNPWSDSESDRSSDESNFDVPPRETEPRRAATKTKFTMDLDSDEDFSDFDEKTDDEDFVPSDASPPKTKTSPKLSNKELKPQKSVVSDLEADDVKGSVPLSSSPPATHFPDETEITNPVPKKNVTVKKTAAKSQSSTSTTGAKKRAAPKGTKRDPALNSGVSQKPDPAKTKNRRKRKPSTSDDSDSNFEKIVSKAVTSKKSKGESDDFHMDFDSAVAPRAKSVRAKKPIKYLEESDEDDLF

[2] = biological target: T1, DNA topoisomerase 1 (Homo sapiens) (UniProt P11387); experiment: Inhibition of human DNA topoisomerase 1 at 100 uM using supercoiled pBR322 DNA as substrate incubated for 30 mins by EtBr staining based agarose gel electrophoresis method relative to control
T1 sequence (whole entry): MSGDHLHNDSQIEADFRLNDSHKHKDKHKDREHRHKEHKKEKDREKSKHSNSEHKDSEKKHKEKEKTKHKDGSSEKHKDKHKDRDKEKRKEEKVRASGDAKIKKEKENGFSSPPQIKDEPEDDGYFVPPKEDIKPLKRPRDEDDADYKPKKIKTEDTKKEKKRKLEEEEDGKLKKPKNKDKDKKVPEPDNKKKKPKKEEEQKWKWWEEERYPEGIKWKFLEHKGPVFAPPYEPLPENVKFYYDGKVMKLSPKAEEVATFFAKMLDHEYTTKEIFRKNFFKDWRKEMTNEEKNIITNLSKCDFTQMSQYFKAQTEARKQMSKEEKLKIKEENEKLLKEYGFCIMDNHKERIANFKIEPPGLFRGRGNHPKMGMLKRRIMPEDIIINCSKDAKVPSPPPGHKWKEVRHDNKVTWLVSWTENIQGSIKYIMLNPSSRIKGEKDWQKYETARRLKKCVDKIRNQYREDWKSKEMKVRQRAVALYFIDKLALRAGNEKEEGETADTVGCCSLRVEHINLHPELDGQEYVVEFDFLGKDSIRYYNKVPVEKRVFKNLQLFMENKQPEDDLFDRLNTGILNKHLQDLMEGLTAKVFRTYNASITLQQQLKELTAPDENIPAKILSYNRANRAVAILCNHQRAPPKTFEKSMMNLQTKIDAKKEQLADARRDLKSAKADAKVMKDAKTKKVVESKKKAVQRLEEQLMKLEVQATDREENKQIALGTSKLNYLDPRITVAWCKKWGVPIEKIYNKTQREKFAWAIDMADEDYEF

[3] = biological target: DNA topoisomerase 2-alpha (Homo sapiens) (UniProt P11388); experiment: Inhibition of human DNA topoisomerase 2 alpha at 100 uM using supercoiled pBR322 DNA as substrate incubated for 30 mins by EtBr staining based agarose gel electrophoresis method relative to control
DU-145 = experiment: Antiproliferative activity against human DU-145 cells incubated for 72 hrs by microplate reader analysis; type: functional, cell-based; conditions: DU-145, 72 h
T47D = experiment: Antiproliferative activity against human T47D cells incubated for 72 hrs by microplate reader analysis; type: functional, cell-based
Calf thymus DNA = experiment: Displacement of EtBr from calf thymus DNA assessed as reduction in fluorescence intensity at 5 to 40 uM preincubated with EtBr for 30 mins followed by compound addition and measured after 30 mins by microplate reader analysis; type: nucleic-acid assay; conditions: Bos taurus, dose 5-40 µM
[4] = biological target: DNA topoisomerase 2-alpha (Homo sapiens) (UniProt P11388); experiment: Poison activity at topoisomerase 2 alpha in human HCT-15 cells at 20 uM incubated for 24 hrs by alkaline comet assay; type: cell-based
[5] = biological target: DNA topoisomerase 2-alpha (Homo sapiens) (UniProt P11388); experiment: Catalytic inhibition of human DNA topoisomerase 2 alpha expressed in baculovirus infected insect cells assessed as reduction in linear DNA formation at 200 to 500 uM using supercoiled pBR322 DNA as substrate incubated for 30 mins by agarose gel electrophoresis; conditions: dose 200-500 µM

Structure (SMILES) | IC50 (HCT-15) | IC50 (HeLa) | inhibition [1] | inhibition [2] | inhibition [3] | IC50 (DU-145) | IC50 (T47D) | Activity (Calf thymus DNA) | inhibition [5] | Activity [4]
CC[C@@]1(O)C(=O)OCc2c1cc1n(c2=O)Cc2cc3ccccc3nc2-1 [CAMPTOTHECIN] | – | – | – | – | – | 0.61 µM | – | – | – | –
Oc1cccc2c1Cc1c-2nc2c(c1-c1ccccc1)Cc1c(O)cccc1-2 | 1.51 µM | 0.59 µM | 1.6% | -0% | 100% | 3.66 µM | 1.12 µM | – | – | –
Oc1ccc2c(c1)-c1nc3c(c(-c4ccc(C(F)(F)F)cc4)c1C2)Cc1ccc(O)cc1-3 | 9.06 µM | 10.5 µM | – | -0% | 0.1% | 5.84 µM | 5.8 µM | – | – | –
Oc1cccc(-c2c3c(nc4c2Cc2cc(O)ccc2-4)-c2ccc(O)cc2C3)c1 | > 50 µM | > 50 µM | 40.8% | – | 56.8% | > 50 µM | > 50 µM | – | – | –
Oc1cccc2c1Cc1c-2nc2c(c1-c1ccco1)Cc1c(O)cccc1-2 | 1.71 µM | 9.63 µM | 100% | -0% | 100% | 5.23 µM | 4.16 µM | inactive | Active | inactive
c1ccc(-c2c3c(nc4c2Cc2ccccc2-4)-c2ccccc2C3)cc1 | > 50 µM | > 50 µM | – | -0% | 2.6% | > 50 µM | > 50 µM | – | – | –
Oc1ccc2c(c1)Cc1c-2nc2c(c1-c1cccc(F)c1)Cc1cc(O)ccc1-2 | > 50 µM | > 50 µM | 3.2% | -0% | 96.5% | > 50 µM | > 50 µM | – | – | –
Oc1ccc2c(c1)-c1nc3c(c(-c4cccs4)c1C2)Cc1ccc(O)cc1-3 | 0.45 µM | 0.93 µM | 4.7% | 0.4% | 59.5% | 0.96 µM | 0.17 µM | – | – | –
Oc1ccc2c(c1)Cc1c-2nc2c(c1-c1cccc(Cl)c1)Cc1cc(O)ccc1-2 | > 50 µM | > 50 µM | 3.5% | -0% | 91.4% | > 50 µM | > 50 µM | – | – | –
Oc1ccc(-c2c3c(nc4c2Cc2c(O)cccc2-4)-c2cccc(O)c2C3)cc1 | 4.89 µM | 0.94 µM | – | – | 13.9% | 5.03 µM | 3.34 µM | – | – | –
Oc1ccc(-c2c3c(nc4c2Cc2ccc(C(F)(F)F)cc2-4)-c2cc(C(F)(F)F)ccc2C3)cc1 | > 50 µM | > 50 µM | 4.5% | 7.1% | 51.4% | 2.57 µM | > 50 µM | – | – | –
Oc1ccccc1-c1c2c(nc3c1Cc1c(O)cccc1-3)-c1cccc(O)c1C2 | 8.69 µM | 2.1 µM | 41.8% | – | 77.1% | > 50 µM | 5.3 µM | – | – | –
Oc1cccc2c1-c1nc3c(c(-c4ccsc4)c1C2)Cc1cccc(O)c1-3 | > 50 µM | > 50 µM | – | -0% | 13.4% | > 50 µM | > 50 µM | – | – | –
COc1cc([C@@H]2c3cc4c(cc3[C@@H](O[C@@H]3O[C@@H]5CO[C@@H](C)O[C@H]5[C@H](O)[C@H]3O)[C@H]3COC(=O)[C@H]23)OCO4)cc(OC)c1O [ETOPOSIDE] | 1.97 µM | 3.38 µM | – | – | – | 9.87 µM | 0.97 µM | – | – | –
Oc1ccc(-c2c3c(nc4c2Cc2cccc(O)c2-4)-c2c(O)cccc2C3)cc1 | 0.95 µM | 2.96 µM | 31.7% | – | 43.6% | 0.89 µM | 4.33 µM | – | – | –

More lines, main results first:

IC50 (HCT-15) | IC50 (HeLa) | inhibition [1] | inhibition [2] | inhibition [3] | IC50 (DU-145) | IC50 (T47D) | Activity (Calf thymus DNA) | inhibition [5] | Structure (SMILES) | Activity [4]
0.93 µM | 3.23 µM | 1.6% | -0% | 84.8% | 0.87 µM | 0.05 µM | – | – | Oc1cccc2c1-c1nc3c(c(-c4ccccc4OC(F)(F)F)c1C2)Cc1cccc(O)c1-3 | –
4.84 µM | 1.56 µM | – | – | -0% | 1.81 µM | 3.82 µM | – | – | Oc1ccccc1-c1c2c(nc3c1Cc1cccc(O)c1-3)-c1c(O)cccc1C2 | –
– | – | – | – | – | – | – | Active | – | COc1cc(NS(C)(=O)=O)ccc1Nc1c2ccccc2nc2ccccc12 | –
> 50 µM | > 50 µM | – | -0% | 21.2% | > 50 µM | > 50 µM | – | – | Oc1cccc(-c2c3c(nc4c2Cc2c(O)cccc2-4)-c2cccc(O)c2C3)c1 | –
> 50 µM | > 50 µM | 2.5% | -0% | 41.5% | > 50 µM | > 50 µM | – | – | Oc1ccc(-c2c3c(nc4c2Cc2c(F)cccc2-4)-c2cccc(F)c2C3)cc1 | –
> 50 µM | > 50 µM | – | – | 22.5% | > 50 µM | > 50 µM | – | – | Oc1cccc(-c2c3c(nc4c2Cc2ccc(O)cc2-4)-c2cc(O)ccc2C3)c1 | –
3.86 µM | 5.39 µM | 65.9% | – | 90.3% | 7.86 µM | 8.86 µM | – | – | Oc1ccc2c(c1)-c1nc3c(c(-c4ccccc4O)c1C2)Cc1ccc(O)cc1-3 | –
46.1 µM | 22.5 µM | 7.5% | – | 93.3% | 31.4 µM | > 50 µM | – | – | Oc1ccc2c(c1)Cc1c-2nc2c(c1-c1ccccc1O)Cc1cc(O)ccc1-2 | –
27.8 µM | 20.4 µM | 78% | – | 84.2% | > 50 µM | 5.24 µM | – | – | Oc1ccc(-c2c3c(nc4c2Cc2ccc(O)cc2-4)-c2cc(O)ccc2C3)cc1 | –
3.53 µM | 1.68 µM | – | – | – | 5.53 µM | 2.53 µM | – | – | COc1cccc2c1C(=O)c1c(O)c3c(c(O)c1C2=O)C[C@@](O)(C(=O)CO)C[C@@H]3O[C@H]1C[C@H](N)[C@H](O)[C@H](C)O1 [DOXORUBICIN] | –
> 50 µM | > 50 µM | 55.7% | – | 73.1% | > 50 µM | 6.38 µM | – | – | Oc1ccc(-c2c3c(nc4c2Cc2cc(O)ccc2-4)-c2ccc(O)cc2C3)cc1 | –
0.96 µM | 0.87 µM | – | – | 26% | 2.58 µM | 6.84 µM | – | – | Oc1cccc(-c2c3c(nc4c2Cc2cccc(O)c2-4)-c2c(O)cccc2C3)c1 | –
